Experimental data reported in PMC9967275, “Screening the Pathogen Box to Discover and Characterize New Cruzain and TbrCatL Inhibitors” (Pathogens, 2023).
Like-named read-outs stand apart in the source and are kept apart here.

Assays:
cruzain = cruzain (Trypanosoma cruzi, UniProt P25779); assay: biochemical;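 on Cruzain 0’ Inhibition: at 5 µM compound concentration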;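 on Cruzain 10’ Inhibition: at 5 µM compound concentration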;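 on Cruzain Inhibition 0’: at 5 µM compound concentration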;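 on Cruzain Inhibition 10’: at 5 µM compound concentration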
Sequence of cruzain (P25779 123-337 limits assumed): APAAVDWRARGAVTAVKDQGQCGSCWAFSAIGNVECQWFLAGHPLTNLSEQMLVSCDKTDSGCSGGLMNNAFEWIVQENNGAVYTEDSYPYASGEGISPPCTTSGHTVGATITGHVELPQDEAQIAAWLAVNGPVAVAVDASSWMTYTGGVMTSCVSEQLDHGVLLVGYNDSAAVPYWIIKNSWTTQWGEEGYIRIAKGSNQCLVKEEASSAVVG
How it was run: (§1)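 Recombinant enzymes assayed by Z-Phe-Arg-AMC cleavage at 25 °C, fluorescence 340/440 nm over 5–7 min, with 10 min or no enzyme–compound preincubation.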

TbrCatL = target: T1, TbrCatL (Trypanosoma brucei rhodesiense, UniProt Q95PM0); assay: TbrCatL enzymatic inhibition assay (cleavage of fluorogenic substrate Z-FR-AMC); format: biochemical; settings: for TbrCatL 0’ Inhibition / TbrCatL 10’ Inhibition: sheet "Screening results";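 on TbrCatL 0’ Inhibition: at 5 µM compound concentration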;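 on TbrCatL 10’ Inhibition: at 5 µM compound concentration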;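 on TbrCatL Inhibition 0’: at 5 µM compound concentration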;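 on TbrCatL Inhibition 10’: at 5 µM compound concentration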
T1 construct: Conor Caffrey (University of California San Diego)
T1 sequence (Q95PM0 entry or part of it): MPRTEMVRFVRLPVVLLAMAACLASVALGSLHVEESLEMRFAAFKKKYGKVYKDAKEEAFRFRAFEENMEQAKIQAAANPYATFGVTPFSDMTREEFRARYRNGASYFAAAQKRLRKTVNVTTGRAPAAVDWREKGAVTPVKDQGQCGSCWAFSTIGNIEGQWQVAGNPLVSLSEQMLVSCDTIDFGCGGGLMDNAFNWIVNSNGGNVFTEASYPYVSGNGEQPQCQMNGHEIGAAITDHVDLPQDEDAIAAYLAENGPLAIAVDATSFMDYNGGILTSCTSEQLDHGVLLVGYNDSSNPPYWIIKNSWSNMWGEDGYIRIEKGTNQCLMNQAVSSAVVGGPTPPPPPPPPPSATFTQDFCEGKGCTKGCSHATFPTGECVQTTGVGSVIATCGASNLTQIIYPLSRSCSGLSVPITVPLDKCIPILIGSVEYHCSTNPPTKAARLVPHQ
How it was run: as §1

[1] = 0’ (pre-incubation time), sheet "Screening results"
[2] = 10’ (pre-incubation time), sheet "Screening results"
[3] = 0’ (pre-incubation time), Pathogen Box screening results
[4] = 10’ (pre-incubation time), Pathogen Box screening results
[5] = 0’ (no pre-incubation), sheet Screening results
[6] = 10’ (pre-incubation), sheet Screening results
[7] = read-out: Cruzain 0’ Inhibition, 0’ (pre-incubation time), sheet "Screening results"
[8] = read-out: Cruzain 10’ Inhibition, 10’ (pre-incubation time), sheet "Screening results"
[9] = read-out: Inhibition at 5 µM (Mean ± SEM %) Cruzain 0′, 5 µM, no pre-incubation, initial screening
[10] = read-out: Inhibition at 5 µM (Mean ± SEM %) Cruzain 10′ inc, 5 µM, 10′ pre-incubation, initial screening
[11] = read-out: Inhibition of cruzain or TbrCatL (either enzyme) in the initial screening, 5 µM, either cruzain or TbrCatL, with or without pre-incubation
[12] = read-out: Inhibition at 5 µM (Mean ± SEM %) TbrCatL 0′
[13] = read-out: Inhibition at 5 µM (Mean ± SEM %) TbrCatL 10′ inc
[14] = read-out: TbrCatL 0’ Inhibition
[15] = read-out: TbrCatL 10’ Inhibition

| Structure (SMILES) | Cruzain 0’ Inhibition (cruzain; [1]) | Cruzain 10’ Inhibition (cruzain; [2]) | TbrCatL 0’ Inhibition (TbrCatL; 0’ (pre-incubation time)) | TbrCatL 10’ Inhibition (TbrCatL; 10’ (pre-incubation time)) | Cruzain Inhibition 0’ (cruzain; [5]) | Cruzain Inhibition 10’ (cruzain; [6]) | TbrCatL Inhibition 0’ (TbrCatL; [5]) | TbrCatL Inhibition 10’ (TbrCatL; [6]) | also measured |
| --- | --- | --- | --- | --- | --- | --- | --- | --- | --- |
| CCOC(=O)c1c(NC(=O)c2c(F)c(F)c(F)c(F)c2F)sc(C(N)=O)c1C [MMV153413] | 0.7% | 23% | 1.1% | 39% | – | – | – | – | – |
| Cc1cc(Cl)ccc1NC(=O)CCc1ccc(S(=O)(=O)NCC(C)C)cc1 [MMV161996] | – | – | – | – | – | – | – | – | Cruzain Inhibition 0’ (cruzain; [3]): -2.2%; Cruzain Inhibition 10’ (cruzain; [4]): 9%; TbrCatL Inhibition 0’ (TbrCatL; [3]): 15%; TbrCatL Inhibition 10’ (TbrCatL; [4]): 1.5% |
| CNC(=O)C1Cc2ccccc2N1C(=O)Cc1ccc(F)cc1 (centres unmarked) [MMV188296] | – | – | – | – | 10% | 10% | 14% | 13% | – |
| COc1ccc(C2(C(=O)Nc3ccc(Br)cc3)CCCC2)cc1 [MMV200748] | 3.8% | 4% | -2.7% | -3% | – | – | – | – | – |
| COc1ccc(OC(C)C(=O)Nc2ccc(Cl)cc2C)cc1 (centres unmarked) [MMV202458] | – | – | – | – | -14% | -11% | -16% | -19% | – |
| CCC(=O)Nc1ccccc1C(=O)Nc1ccccn1 [MMV202553] | – | – | – | – | 15% | 14% | 15% | 7% | – |
| COc1cccc(NC(=O)c2c(NC(=O)c3cccnc3)sc3c2CCC3)c1 [MMV228911] | – | – | – | – | – | – | – | – | Cruzain Inhibition 0’ (cruzain; [3]): -1.4%; Cruzain Inhibition 10’ (cruzain; [4]): 4.7%; TbrCatL Inhibition 0’ (TbrCatL; [3]): -8.5%; TbrCatL Inhibition 10’ (TbrCatL; [4]): 4.5% |
| COc1cccc(-n2nnnc2S(C)(=O)=O)c1 [MMV272144] | – | – | – | – | – | – | – | – | Cruzain Inhibition 0’ (cruzain; [3]): -1.3%; Cruzain Inhibition 10’ (cruzain; [4]): 11%; TbrCatL Inhibition 0’ (TbrCatL; [3]): -11%; TbrCatL Inhibition 10’ (TbrCatL; [4]): 9% |
| COc1cccc(-c2cc3c(Nc4cccnc4)nccc3[nH]2)c1 [MMV392832] | – | – | – | – | – | – | – | – | Cruzain Inhibition 0’ (cruzain; [3]): 8.5%; Cruzain Inhibition 10’ (cruzain; [4]): -3.6%; TbrCatL Inhibition 0’ (TbrCatL; [3]): 6%; TbrCatL Inhibition 10’ (TbrCatL; [4]): -6.4% |
| CN1CCN(c2nccc3[nH]c(-c4cccc(F)c4)cc23)CC1 [MMV393144] | -15% | -11% | -8.5% | -8% | – | – | – | – | – |
| Cc1cc(=O)[nH]c(-n2nc(C)cc2C)n1 [MMV393995] | – | – | – | – | – | – | – | – | Cruzain Inhibition 0’ (cruzain; [3]): -12%; Cruzain Inhibition 10’ (cruzain; [4]): -0.3%; TbrCatL Inhibition 0’ (TbrCatL; [3]): -13%; TbrCatL Inhibition 10’ (TbrCatL; [4]): -7% |
| CCc1nc2ccc(C(=O)NCc3ccc4c(c3)OCO4)cn2c1N(C)Cc1cccs1 [MMV407539] | -4% | -3% | -10% | -3.2% | – | – | – | – | – |
| CCOc1ccccc1NC(C)C(=O)Nc1cc(C(F)(F)F)ccc1N1CCOCC1 (centres unmarked) [MMV407834] | -3.4% | 4% | -3% | -7% | – | – | – | – | – |
| COC(=O)c1c(NC(=O)c2c(F)c(F)c(F)c(F)c2F)sc2c1CCCCC2 [MMV461553] | – | – | – | – | -34% | -24% | -16% | 9% | – |
| CC(C)(C)c1cnc(NC(=O)c2ccccc2O)s1 [MMV495543] | – | – | – | – | – | – | – | – | Cruzain Inhibition 0’ (cruzain; [3]): -17%; Cruzain Inhibition 10’ (cruzain; [4]): 3.4%; TbrCatL Inhibition 0’ (TbrCatL; [3]): -9%; TbrCatL Inhibition 10’ (TbrCatL; [4]): 6.5% |
| CS(=O)(=O)Cc1nc2ccccc2oc1=O [MMV553002] | – | – | – | – | 18% | 12% | 19% | 19% | – |
| c1ccc(-c2cc(N3CCCCC3)c3ccccc3n2)nc1 [MMV560185] | – | – | – | – | 5.5% | -4.5% | 4.5% | -2.4% | – |
| CCN(CC)S(=O)(=O)c1ccc(C(=O)Nc2cc(C)nn2-c2nc(C)c(C)c(=O)[nH]2)cc1 [MMV595321] | – | – | – | – | -13% | -3.8% | -23% | -29% | – |
| CCC(Sc1nc2ccccc2o1)C(=O)Nc1nnc(C)s1 (centres unmarked) [MMV611037] | 0.2% | 4% | 6% | 5% | – | – | – | – | – |
| O=C(NCCN1CCCC1)c1cc(NCCN2CCOCC2)nc2ccc(Cl)cc12 [MMV634140] | – | – | – | – | – | – | – | – | inhibition at 5 µM (cruzain; [7]): 24%; inhibition at 5 µM (cruzain; [8]): 31%; inhibition at 5 µM (cruzain; [9]): 24 ± 1%; inhibition at 5 µM (cruzain; [10]): 31 ± 3%; inhibition at 5 µM (cruzain; [11]): ≥ 40%; inhibition at 5 µM (TbrCatL; [12]): 11 ± 1%; inhibition at 5 µM (TbrCatL; [13]): 42 ± 3%; inhibition at 5 µM (TbrCatL; [14]): 11%; inhibition at 5 µM (TbrCatL; [15]): 42% |
| Cc1ccc(C(=O)Nc2ccc(S(=O)(=O)O)c3cc(S(=O)(=O)O)cc(S(=O)(=O)O)c23)cc1NC(=O)c1cccc(NC(=O)Nc2cccc(C(=O)Nc3cc(C(=O)Nc4ccc(S(=O)(=O)O)c5cc(S(=O)(=O)O)cc(S(=O)(=O)O)c45)ccc3C)c2)c1 [MMV637953] | – | – | – | – | 32% | 21% | -4.4% | -0.2% | – |
| O=C(Nc1ccc2c(c1)B(O)OC2)c1ccccc1C(F)(F)F [MMV652003] | – | – | – | – | 22% | 16% | -5.6% | -1.7% | – |
| Cc1nc(-c2ccccn2)nc(N(C)CCc2ccccc2)c1Cl [MMV658988] | – | – | – | – | – | – | – | – | Cruzain Inhibition 0’ (cruzain; [3]): -3%; Cruzain Inhibition 10’ (cruzain; [4]): 14%; TbrCatL Inhibition 0’ (TbrCatL; [3]): -5.5%; TbrCatL Inhibition 10’ (TbrCatL; [4]): 10% |
| Cc1nc(-c2ccccn2)nc(NCCc2ccc(S(C)(=O)=O)cc2)c1Cl [MMV658993] | -6.4% | 9% | -11% | -12% | – | – | – | – | – |
| Cc1nc(-c2ccccn2)nc(N2CCC(Cc3ccccc3)C2)c1Cl (centres unmarked) [MMV659004] | -2% | 12% | -4.5% | -2.3% | – | – | – | – | – |
| FC(F)(F)c1cc(NCCc2ccccc2)nc(-c2ccccn2)n1 [MMV659010] | -2.5% | 6% | 8% | 9% | – | – | – | – | – |
| Brc1cncc(-c2cc(NCCCn3ccnc3)nc(-c3ccccc3)n2)c1 [MMV661713] | – | – | – | – | 20% | 13% | 20% | 10% | – |
| Clc1cccc(C(c2ccc(CN3CCNCC3)cc2)n2ccnc2)c1 (centres unmarked) [MMV663250] | -0.3% | 10% | -13% | -1.1% | – | – | – | – | – |
| O=C(NCCN1CCCC1)c1cc(NCCCCN2CCC(F)(F)CC2)nc2ccc(Cl)cc12 [MMV667494] | – | – | – | – | – | – | – | – | inhibition at 5 µM (cruzain; [7]): 39%; inhibition at 5 µM (cruzain; [8]): 53%; inhibition at 5 µM (cruzain; [9]): 40 ± 1%; inhibition at 5 µM (cruzain; [10]): 53 ± 1%; inhibition at 100 µM (cruzain; read-out: Inhibition at 100 µM (Mean ± SEM %) Cruzain 0′, 100 µM, no pre-incubation, solid samples): 0%; inhibition at 100 µM (cruzain; read-out: Inhibition at 100 µM (Mean ± SEM %) Cruzain 10′ inc, 100 µM, 10′ pre-incubation, solid samples): 70 ± 3%; inhibition at 5 µM (cruzain; [11]): ≥ 60%; inhibition at 5 µM (TbrCatL; [12]): 31 ± 5%; inhibition at 5 µM (TbrCatL; [13]): 73 ± 1%; inhibition at 100 µM (TbrCatL; read-out: Inhibition at 100 µM (Mean ± SEM %) TbrCatL 0′): 0%; inhibition at 100 µM (TbrCatL; read-out: Inhibition at 100 µM (Mean ± SEM %) TbrCatL 10′ inc): 11 ± 8%; inhibition at 5 µM (TbrCatL; [14]): 32%; inhibition at 5 µM (TbrCatL; [15]): 73% |
| Nc1ncc(-c2ccc(C(F)(F)F)nc2)cc1-c1ccc(C(F)(F)F)nc1 [MMV668727] | – | – | – | – | 11% | -3% | 6.6% | -4.6% | – |
